# Reference: patent US20250114338A1, “TETRAHYDRO-PYRIDO[3,4-b]INDOLE ESTROGEN RECEPTOR MODULATORS AND USES THEREOF” (Genentech, Inc., priority 2014, published 2025)
# System: ER-alpha MCF7
# Assay: ER-alpha MCF7 HCS EC50; stated as measured by in vitro cell proliferation assays of Examples 902 and 903
# Type: cell-based
# Conditions: Homo sapiens, MCF7, MCF7 cells; Table 1
# From the text: The CellTiter-Glo® Luminescent Cell Viability Assay is a homogeneous method to determine the number of viable cells in culture based on quantitation of the ATP present, which signals the presence of metabolically active cells. The CellTiter-Glo® Assay is designed for use with multiwell plate formats, making it ideal for automated high-throughput screening (HTS), cell proliferation and cytotoxicity assays. The homogeneous assay procedure involves adding a single reagent (CellTiter-Glo® Reagent) directly to cells cultured in serum-supplemented medium. Cell washing, removal of medium or multiple pipetting steps are not required. The Cell Titer-Glo® Luminescent Cell Viability Assay, including reagents and protocol are commercially available (Promega Corp., Madison, WI, Technical Bulletin TB288).
# The assay assesses the ability of compounds to enter cells and inhibit cell proliferation. The assay principle is based on the determination of the number of viable cells present by quantitating the ATP present in a homogenous assay where addition of the Cell Titer-Glo® reagent results in cell lysis and generation of a luminescent signal through the luciferase reaction. The luminescent signal is proportional to the amount of ATP present.
# Cell Culture Medium: RPMI or DMEM high glucose, 10% Fetal Bovine Serum, 2 mM L-Glutamine, P/S. Incubate O/N (overnight) at 37° C., 5% CO2.
# Day 2—Add Drug to Cells, Compound Dilution, DMSO Plates (serial 1:2 for 9 points). Add 20 μl of compound at 10 mM in the 2nd column of 96 well plate. […] Add 147 μl of Media into all wells. Transfer 3 μl of DMSO+ compound from each well in the DMSO Plate to each corresponding well on Media Plate using Rapidplate® (Caliper, a Perkin-Elmer Co.). For 2 drug combination studies, transfer one drug 1.5 μl of DMSO+ compound from each well in the DMSO Plate to each corresponding well on Media Plate using Rapidplate. Then, transfer another drug 1.5 μl to the medium plate.
# Drug Addition to Cells, Cell Plate (1:10 dilution): Add 6 μl of media+ compound directly to cells (54 μl of media on the cells already). Incubate 3 days at 37° C., 5% CO2 in an incubator that will not be opened often.
# Day 5—Develop Plates, Thaw Cell Titer Glo Buffer at room temperature: Remove Cell Plates from 37° C. and equilibrate to room temperature for about 30 minutes. Add Cell Titer-Glo® Buffer to Cell Titer-Glo® Substrate (bottle to bottle). Add 30 μl Cell Titer-Glo® Reagent (Promega cat. #G7572) to each well of cells. Place on plate shaker for about 30 minutes. Read luminescence on Analyst HT Plate Reader (half second per well).
# Cell viability assays and combination assays: Cells were seeded at 1000-2000 cells/well in 384-well plates for 16 h. On day two, nine serial 1:2 compound dilutions were made in DMSO in a 96 well plate. The compounds were further diluted into growth media using a Rapidplate® robot (Zymark Corp., Hopkinton, MA). The diluted compounds were then added to quadruplicate wells in 384-well cell plates and incubated at 37° C. and 5% CO2. After 4 days, relative numbers of viable cells were measured by luminescence using Cell Titer-Glo® (Promega) according to the manufacturer's instructions and read on a Wallac Multilabel Reader® (PerkinElmer, Foster City). EC50 values were calculated using Prism® 4.0 software (GraphPad, San Diego).
# 5 ul of each individual compound concentration and each control compound was transferred to the cell plate. Fulvestrant was added to control wells at a final concentration of 100 nM). DMSO was added to negative control wells (0.2% v/v).
row,Compound,EC50 [pM]
1,"C[C@@H]1Cc2c([nH]c3ccccc23)[C@@H](c2ccc(OCCN3CC(CF)C3)nc2)N1CC(C)(C)F [Example 111, (1R,3R)-2-(2-fluoro-2-methylpropyl)-1-(6-(2-(3-(fluoromethyl)azetidin-1-yl)ethoxy)pyridin-3-yl)-3-methyl-2,3,4,9-tetrahydro-1H-pyrido[3,4-b]indole]",898
2,"C[C@@H]1Cc2c([nH]c3ccccc23)[C@@H](c2ncc(OCCN3CC(CF)C3)cc2F)N1CC(C)(C)F [Example 112, (1S,3R)-2-(2-fluoro-2-methylpropyl)-1-(3-fluoro-5-(2-(3-(fluoromethyl)azetidin-1-yl)ethoxy)pyridin-2-yl)-3-methyl-2,3,4,9-tetrahydro-1H-pyrido[3,4-b]indole]",92
3,"C[C@@H]1Cc2c([nH]c3ccccc23)[C@@H](c2c(F)cc(OCCN3CC(CF)C3)cc2F)N1CC1(C)COC1 [Example 114, (1R,3R)-1-(2,6-difluoro-4-(2-(3-(fluoromethyl)azetidin-1-yl)ethoxy)phenyl)-3-methyl-2-((3-methyloxetan-3-yl)methyl)-2,3,4,9-tetrahydro-1H-pyrido[3,4-b]indole]",715

# Same assay, conditions: Homo sapiens, MCF7, MCF7 cells; Table 2
row,Compound,EC50 [pM]
1,"C[C@@H]1Cc2c([nH]c3ccccc23)[C@@H](c2c(F)cc(OCCN3CC(CF)C3)cc2F)N1CC(C)(C)O [Example 127, 1-[(1R,3R)-1-[2,6-difluoro-4-[2-[3-(fluoromethyl)azetidin-1-yl]ethoxy]phenyl]-3-methyl-1,3,4,9-tetrahydropyrido[3,4-b]indol-2-yl]-2-methyl-propan-2-ol]",641
2,"CC(C)(F)CN1[C@@H](CO)Cc2c([nH]c3ccccc23)[C@@H]1c1c(F)cc(OCCN2CC(CF)C2)cc1F [Example 131, ((1S,3R)-1-(2,6-difluoro-4-(2-(3-(fluoromethyl)azetidin-1-yl)ethoxy)phenyl)-2-(2-fluoro-2-methylpropyl)-2,3,4,9-tetrahydro-1H-pyrido[3,4-b]indol-3-yl)methanol]",146
3,"C[C@@H]1Cc2c([nH]c3ccccc23)[C@@H](c2c(F)cc(OC3CNC3)cc2F)N1CC(C)(C)F [Example 132, (1R,3R)-1-[4-(azetidin-3-yloxy)-2,6-difluoro-phenyl]-2-(2-fluoro-2-methyl-propyl)-3-methyl-1,3,4,9-tetrahydropyrido[3,4-b]indole]",310
4,"C[C@@H]1Cc2c([nH]c3ccccc23)[C@@H](c2ccc(OCCN3CC(CF)C3)cc2F)N1CC(C)(C)F [Example 133, (1R,3R)-2-(2-fluoro-2-methylpropyl)-1-(2-fluoro-4-(2-(3-(fluoromethyl)azetidin-1-yl)ethoxy)phenyl)-3-methyl-2,3,4,9-tetrahydro-1H-pyrido[3,4-b]indole]",56.2
5,"C[C@@H]1Cc2c([nH]c3ccccc23)[C@@H](c2c(F)cc(OCCN3CC(CF)C3)cc2F)N1C1CCC1 [Example 134, (1R,3R)-2-cyclobutyl-1-[2,6-difluoro-4-[2-[3-(fluoromethyl)azetidin-1-yl]ethoxy]phenyl]-3-methyl-1,3,4,9-tetrahydropyrido[3,4-b]indole]",542
6,"CC(C)(F)CN1[C@H](CF)Cc2c([nH]c3ccccc23)[C@H]1c1c(F)cc(OCCN2CC(CF)C2)cc1F [Example 135, (1R,3S)-1-[2,6-difluoro-4-[2-[3-(fluoromethyl)azetidin-1-yl]ethoxy]phenyl]-3-(fluoromethyl)-2-(2-fluoro-2-methyl-propyl)-1,3,4,9-tetrahydropyrido[3,4-b]indole]",97.3
7,"C[C@@H]1Cc2c([nH]c3ccccc23)[C@@H](c2c(F)cc(OCCN3CC(CF)C3)cc2F)N1CC1(F)COC1 [Example 136, (1R,3R)-1-[2,6-difluoro-4-[2-[3-(fluoromethyl)azetidin-1-yl]ethoxy]phenyl]-2-[(3-fluorooxetan-3-yl)methyl]-3-methyl-1,3,4,9-tetrahydropyrido[3,4-b]indole]",114

# Further lines, results first:
row,EC50 [pM],Compound
1,4000,"C[C@@H]1Cc2c([nH]c3ccccc23)[C@@H](c2c(F)cc(OCCN3CC(CF)C3)cc2F)N1C(=O)C1CC(F)C1 (stereo in doubt) [Example 203, [1-[2,6-difluoro-4-[2-[3-(fluoromethyl)azetidin-1-yl]ethoxy]phenyl]-3-methyl-1,3,4,9-tetrahydropyrido[3,4-b]indol-2-yl]-(3-fluorocyclobutyl)methanone]"
2,14000,"CC(CN1[C@H](c2c(F)cc(OC3CN(CCCF)C3)cc2F)c2[nH]c3ccccc3c2C[C@H]1C)C(=O)O (stereo in doubt) [Example 350, 3-[1-[2,6-difluoro-4-[1-(3-fluoropropyl)azetidin-3-yl]oxy-phenyl]-3-methyl-1,3,4,9-tetrahydropyrido[3,4-b]indol-2-yl]-2-methyl-propanoic acid]"
3,28000,"C[C@@H]1Cc2c([nH]c3ccccc23)[C@@H](c2c(F)cc(OCCN3CC(CF)C3)cc2F)N1C(=O)C1CCCCC1 [Example 137, cyclohexyl((1R,3R)-1-(2,6-difluoro-4-(2-(3-(fluoromethyl)azetidin-1-yl)ethoxy)phenyl)-3-methyl-3,4-dihydro-1H-pyrido[3,4-b]indol-2(9H)-yl)methanone]"
4,491,"C[C@@H]1Cc2c([nH]c3ccccc23)[C@@H](c2c(F)cc(OCCN3CC(CF)C3)cc2F)N1C(=O)C(C)(C)C [Example 138, 1-[(1R,3R)-1-[2,6-difluoro-4-[2-[3-(fluoromethyl)azetidin-1-yl]ethoxy]phenyl]-3-methyl-1,3,4,9-tetrahydropyrido[3,4-b]indol-2-yl]-2,2-dimethyl-propan-1-one]"
5,2480,"C[C@@H]1Cc2c([nH]c3ccccc23)[C@@H](c2c(F)cc(OCCN3CC(CF)C3)cc2F)N1C(=O)C1CC1 [Example 139, cyclopropyl((1R,3R)-1-(2,6-difluoro-4-(2-(3-(fluoromethyl)azetidin-1-yl)ethoxy)phenyl)-3-methyl-3,4-dihydro-1H-pyrido[3,4-b]indol-2(9H)-yl)methanone]"
6,130,"CC1CN(CCOc2cc(F)c([C@@H]3c4[nH]c5ccccc5c4C[C@@H](C)N3CC(C)(C)F)c(F)c2)C1 [Example 140, (1R,3R)-1-[2,6-difluoro-4-[2-(3-methylazetidin-1-yl)ethoxy]phenyl]-2-(2-fluoro-2-methyl-propyl)-3-methyl-1,3,4,9-tetrahydropyrido[3,4-b]indole]"
7,151,"C[C@@H]1CCN(CCOc2cc(F)c([C@@H]3c4[nH]c5ccccc5c4C[C@@H](C)N3CC(C)(C)F)c(F)c2)C1 [Example 141, (1R,3R)-1-(2,6-difluoro-4-(2-((R)-3-methylpyrrolidin-1-yl)ethoxy)phenyl)-2-(2-fluoro-2-methylpropyl)-3-methyl-2,3,4,9-tetrahydro-1H-pyrido[3,4-b]indole]"
8,90,"C[C@@H]1Cc2c([nH]c3ccccc23)[C@@H](c2c(F)cc(OC[C@H](C)N3CCCC3)cc2F)N1CC(C)(C)F [Example 142, (1R,3R)-1-[2,6-difluoro-4-[(2S)-2-pyrrolidin-1-ylpropoxy]phenyl]-2-(2-fluoro-2-methyl-propyl)-3-methyl-1,3,4,9-tetrahydropyrido[3,4-b]indole]"
9,78,"C[C@@H]1Cc2c([nH]c3ccccc23)[C@@H](c2c(F)cc(OCCCN3CC(CF)C3)cc2F)N1CC(C)(C)F [Example 143, (1R,3R)-1-[2,6-difluoro-4-[3-[3-(fluoromethyl)azetidin-1-yl]propoxy]phenyl]-2-(2-fluoro-2-methyl-propyl)-3-methyl-1,3,4,9-tetrahydropyrido[3,4-b]indole]"
10,144,"C[C@@H]1Cc2c([nH]c3ccccc23)[C@@H](c2c(F)cc(/C=C/CN3CC(CF)C3)cc2F)N1CC(C)(C)F [Example 144, (1R,3R)-1-[2,6-difluoro-4-[(E)-3-[3-(fluoromethyl)azetidin-1-yl]prop-1-enyl]phenyl]-2-(2-fluoro-2-methyl-propyl)-3-methyl-1,3,4,9-tetrahydropyrido[3,4-b]indole]"
